By inhibition is commonly meant the change of the read-out against control, counted positive when it falls. What is called Ki is the equilibrium dissociation constant of an inhibitor or competing ligand from its target.

The target in one assay is T1, D3 (Homo sapiens, UniProt P35462).
T1 construct: expressed in transfected cells
Briefly: Primary binding assay at non-sigma receptors: D3. The conditions noted are these: 10 μM (final) assay concentration. How it is done:
(§1) Initial primary binding screening assays were performed using a 50 μM (initial)−10 μM (final) assay concentration of reference and test compounds.

The target in the next assay is T2, Alpha2A (Homo sapiens, UniProt P08913).
T2 construct: expressed in transfected cells
T2 sequence (P08913 1-465): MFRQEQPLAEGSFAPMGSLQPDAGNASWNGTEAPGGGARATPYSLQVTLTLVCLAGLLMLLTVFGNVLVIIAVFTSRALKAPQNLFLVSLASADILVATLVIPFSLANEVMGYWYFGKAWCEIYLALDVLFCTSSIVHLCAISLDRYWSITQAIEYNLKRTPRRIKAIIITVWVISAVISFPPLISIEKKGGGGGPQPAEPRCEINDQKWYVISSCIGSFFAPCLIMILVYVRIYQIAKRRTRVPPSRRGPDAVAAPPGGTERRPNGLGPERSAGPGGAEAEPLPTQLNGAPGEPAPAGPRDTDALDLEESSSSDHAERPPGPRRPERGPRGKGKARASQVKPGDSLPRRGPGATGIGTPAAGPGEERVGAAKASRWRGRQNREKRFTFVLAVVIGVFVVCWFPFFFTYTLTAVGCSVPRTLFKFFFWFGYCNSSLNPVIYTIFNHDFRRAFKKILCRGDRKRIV
The assay is described as follows: Primary binding assay at non-sigma receptors: Alpha2A. The conditions noted are these: 10 μM (final) assay concentration. Here is the method:
as §1

For a further assay, the target named is T3, 5-HT2A (Homo sapiens, UniProt P28223).
T3 construct: expressed in transfected cells
Briefly: Secondary binding assay, Ki determination: 5-HT2A.

The next assay concerns StAR. The assay is described as follows: Western blot, expression of StAR in MA-10 cells. It is filed as cell-based, mouse. Here is the method:
Mouse Leydig cell line (MA-10) was grown in Waymouth media containing 15% horse serum, 5% fetal bovine serum, and 1× gentamycin, which was replaced with […] G418 (geneticin) for VDAC1 knockdown (ΔVDAC1) MA10 cells. Cells were maintained at 37° C. in a humidified incubator under 5% CO2. To isolate mitochondria, cells were removed from tissue culture plates by gentle scrapping in phosphate-buffered saline at room temperature, incubated in hypotonic buffer (10 mM HEPES, pH 7.4) for 30 to 40 min, and mitochondria were isolated following readily available procedures. The mitochondrial preparation was verified by Western blotting with the cytochrome P450 SCC enzyme (Corgen, Tapai, Taiwan) and calnexin antibodies (Santa Cruz Biotechnology, Inc., Santa Cruz, Calif.).
Protein (12.5 μg) was separated by 15% SDS-polyacrylamide gel electrophoresis and transferred to a polyvinylidinedifluoride membrane (Millipore Corporation, Billerica, Mass.). The membrane was blocked with 3% nonfat dry milk for 45 min, probed overnight with the primary antibodies, and then incubated with […] goat anti-rabbit or anti mouse IgG (Thermo Fisher Scientific, Waltham, Mass.). Signals were developed with chemiluminescent reagent (Thermo Fisher Scientific). For loading control of all Western blots, the membrane was stained with β-actin antibody, which was previously independently stained with StAR or 3-β-hydroxysteroid dehydrogenase (3βHSD2) or VDAC1 and VDAC2 antiserum. The band intensity was determined by using Image Quant 5.2 (Phosphorimager; GE Healthcare, Chalfont St. Giles, Buckinghamshire, UK). Densitometric calculation may reflect the ratio of σ1 or VDAC2 and β-actin following an established procedure that is readily available.
The role of KSCM ligands on the expression of StAR in MA-10 cells was evaluated. In all the cases studied, both the 37-kDa unimported and the 30-kDa mitochondrial-imported, mature protein, were observed but not the 32-kDa transient intermediate protein. The same membrane was probed first with StAR antibody and then with β-actin antibody independently. […] Coimmunoprecipitation experiments were performed to determine whether there was a direct interaction between σ1 receptor and StAR or VDAC2. […] StAR is a 37-kDa protein and thus it is higher than the 28-kDa σ1 (FIG. 5A), confirming that StAR interaction with the σ1 receptor.
(In general: Immunoblotting shows a protein as a band on a membrane.)

The next assay concerns the target T4, σ2 receptor (Rattus norvegicus, UniProt Q5U3Y7).
T4 construct: PC12 cell homogenates for σ2 receptors were added to the wells; endogenous in cells; host or cells: PC12 cell homogenate
T4 sequence (Q5U3Y7 1-176): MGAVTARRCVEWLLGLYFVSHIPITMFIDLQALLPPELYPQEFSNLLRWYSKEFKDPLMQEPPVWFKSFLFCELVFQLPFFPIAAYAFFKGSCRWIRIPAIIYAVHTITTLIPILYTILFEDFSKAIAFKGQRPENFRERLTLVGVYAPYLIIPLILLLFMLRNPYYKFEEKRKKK
The assay is described as follows: Secondary binding assay, Ki determination at σ2 receptor ([3H]DTG, PC12 cell homogenates). The conditions noted are these: read-out: σ-2 (Ki).

Another assay concerns the target T5, M4 (Homo sapiens, UniProt P08173).
T5 construct: expressed in transfected cells
T5 sequence (P08173 1-479): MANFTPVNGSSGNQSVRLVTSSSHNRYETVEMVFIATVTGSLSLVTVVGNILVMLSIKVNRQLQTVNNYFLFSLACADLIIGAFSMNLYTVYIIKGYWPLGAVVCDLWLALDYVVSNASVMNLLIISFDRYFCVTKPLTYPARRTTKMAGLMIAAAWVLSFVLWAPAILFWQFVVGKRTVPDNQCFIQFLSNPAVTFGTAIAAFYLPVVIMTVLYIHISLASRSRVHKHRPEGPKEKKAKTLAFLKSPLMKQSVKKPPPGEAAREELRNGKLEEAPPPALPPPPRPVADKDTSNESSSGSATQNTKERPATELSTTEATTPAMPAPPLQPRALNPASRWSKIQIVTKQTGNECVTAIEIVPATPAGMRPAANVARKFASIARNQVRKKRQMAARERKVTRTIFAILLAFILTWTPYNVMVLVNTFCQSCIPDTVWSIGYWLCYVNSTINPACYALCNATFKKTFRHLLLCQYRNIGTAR
The assay is described as follows: Primary binding assay at non-sigma receptors: M4. The conditions noted are these: 10 μM (final) assay concentration. How it is done: as §1

Another assay deals with T6, 5-HT2B (Homo sapiens, UniProt P41595).
T6 construct: expressed in transfected cells
The assay is described as follows: Primary binding assay at non-sigma receptors: 5-HT2B. The conditions noted are these: read-out: % Inhibition 5-HT2B. How it is done: as §1

Another assay deals with T7, Alpha2C (Homo sapiens, UniProt P18825).
T7 construct: expressed in transfected cells
T7 sequence (P18825 1-462): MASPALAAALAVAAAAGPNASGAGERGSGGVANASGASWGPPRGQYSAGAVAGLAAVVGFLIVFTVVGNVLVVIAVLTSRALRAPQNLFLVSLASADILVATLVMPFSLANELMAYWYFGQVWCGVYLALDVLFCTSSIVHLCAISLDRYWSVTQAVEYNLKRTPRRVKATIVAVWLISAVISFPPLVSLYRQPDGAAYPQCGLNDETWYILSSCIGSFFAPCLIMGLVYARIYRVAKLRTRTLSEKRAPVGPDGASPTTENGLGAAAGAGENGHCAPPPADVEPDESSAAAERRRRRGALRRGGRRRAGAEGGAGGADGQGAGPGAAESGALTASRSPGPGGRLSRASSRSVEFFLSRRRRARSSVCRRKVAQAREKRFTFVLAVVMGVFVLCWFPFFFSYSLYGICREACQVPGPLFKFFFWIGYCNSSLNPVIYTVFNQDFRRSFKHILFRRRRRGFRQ
Briefly: Primary binding assay at non-sigma receptors: Alpha2C. The conditions noted are these: 10 μM (final) assay concentration. Here is the method: as §1

Molecules are shown by their SMILES. Entries after “also recorded” stand apart in the source; their conditions may differ. Read-outs that look alike come from different tables or passages of the source.

T6 sequence (P41595 whole entry, species assumed): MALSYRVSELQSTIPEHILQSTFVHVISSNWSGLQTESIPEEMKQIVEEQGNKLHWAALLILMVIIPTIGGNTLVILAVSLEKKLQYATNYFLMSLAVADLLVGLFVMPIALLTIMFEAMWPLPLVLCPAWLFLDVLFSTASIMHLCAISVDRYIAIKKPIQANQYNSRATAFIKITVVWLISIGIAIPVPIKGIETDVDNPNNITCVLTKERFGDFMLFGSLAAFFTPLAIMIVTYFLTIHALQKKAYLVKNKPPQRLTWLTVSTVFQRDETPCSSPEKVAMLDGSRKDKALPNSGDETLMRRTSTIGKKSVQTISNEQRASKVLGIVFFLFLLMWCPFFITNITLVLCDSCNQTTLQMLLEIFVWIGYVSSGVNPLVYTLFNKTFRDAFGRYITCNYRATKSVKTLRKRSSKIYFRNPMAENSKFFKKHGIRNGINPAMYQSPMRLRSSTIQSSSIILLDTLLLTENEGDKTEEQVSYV
T3 sequence (P28223 whole entry): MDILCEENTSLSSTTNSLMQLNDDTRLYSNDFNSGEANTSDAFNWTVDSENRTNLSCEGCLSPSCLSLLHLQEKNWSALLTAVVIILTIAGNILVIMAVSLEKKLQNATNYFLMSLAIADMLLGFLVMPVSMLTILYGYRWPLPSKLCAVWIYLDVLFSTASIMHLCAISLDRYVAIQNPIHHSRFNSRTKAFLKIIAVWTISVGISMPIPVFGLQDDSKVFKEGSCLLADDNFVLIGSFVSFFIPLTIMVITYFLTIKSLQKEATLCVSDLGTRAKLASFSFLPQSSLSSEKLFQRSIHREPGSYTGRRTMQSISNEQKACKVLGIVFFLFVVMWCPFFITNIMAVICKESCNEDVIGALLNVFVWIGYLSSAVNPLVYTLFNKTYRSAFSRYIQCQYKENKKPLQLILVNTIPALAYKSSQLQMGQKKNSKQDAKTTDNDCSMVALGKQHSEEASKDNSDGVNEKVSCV
T1 sequence (P35462 whole entry): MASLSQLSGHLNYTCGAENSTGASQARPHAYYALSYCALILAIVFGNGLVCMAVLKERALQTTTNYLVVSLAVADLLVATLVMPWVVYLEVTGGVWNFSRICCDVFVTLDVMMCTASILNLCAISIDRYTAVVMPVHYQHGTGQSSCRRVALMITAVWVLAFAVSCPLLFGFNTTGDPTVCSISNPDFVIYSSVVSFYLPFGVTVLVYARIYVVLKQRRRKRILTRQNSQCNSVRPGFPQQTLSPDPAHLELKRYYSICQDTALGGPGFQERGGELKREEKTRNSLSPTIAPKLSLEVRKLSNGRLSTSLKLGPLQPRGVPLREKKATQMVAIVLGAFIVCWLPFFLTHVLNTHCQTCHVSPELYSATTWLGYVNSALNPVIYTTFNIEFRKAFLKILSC
Experimental for σ2 receptor: Secondary binding assays, Ki determinations were performed by measuring the inhibition of radioligand binding by various concentrations of test and reference compound. […] [^3H]Pentazocine (3 nM) was used as the radioligand for σ1 receptors and [^3H]Ditolyglguanidine (DTG) (1 nM) as the radioligand for σ2 receptors. Aliquots (50 μl) of radioligand were dispensed into the wells of a 96-well plate containing 100 μl of Standard Binding Buffer. Then, duplicate 50-μl aliquots of the test and reference compound dilutions were added. Finally, either crude membrane fractions prepared from rat brain homogenate for σ1 receptors or PC12 cell homogenates for σ2 receptors were added to the wells, and the plates shielded from light to prevent photolysis of light sensitive ligands.
For σ1 receptors, the reactions were incubated at 37° C. for 2.5 h, and for σ2 receptors, the reactions were incubated at room temperature for 2 h. Labeled receptors were harvested by rapid filtration on to Whatman GF/B glass filters pre-soaked with 0.3% polyethyleneimine using 96-well Brandel harvester. Four rapid 500 μl washes are performed with chilled Standard Binding buffer to reduce non-specific binding. Filters were placed in 6-ml scintillation tubes and allowed to dry overnight. EcoScint scintiallation cocktail (National Diagnostics) was added to each tube prior to counting. […] The filter mats were dried, the scintillate melted onto the filters and the radioactivity counted in a Microbeta scintillation counter.
Raw data (dpm) representing total radioligand binding (i.e., specific+nonspecific binding) were plotted as a function of the logarithm of the molar concentration of the competitor (i.e., test or reference compound).

For the compound `COc1ccc2c(C)c(C(=O)N(CCCN3CCCCC3)c3ccccc3)oc2c1` [KSCM-11, 6-Methoxy-3-methyl-N-phenyl-N-(3-(piperidin-1-yl)propyl)benzofuran-2-carboxamide], the inhibition at 10 µM at D3 amounted to 40.6%; on Alpha2A, 81.1%; at M4, 68.4%; at 5-HT2B, 93.9%; on Alpha2C it was 49%. Besides, the figures for the Ki on 5-HT2A and on σ2 receptor were 2770 nM and 41 nM, respectively. For the same compound, in the assay on StAR, the “expression of imported 30-kDa StAR (in words)” value was “unchanged”. In addition, the “expression of unimported 37-kDa StAR (in words)” value in the assay with StAR was “not and unchanged”.

On to `Cc1c(C(=O)N(CCCN2CCCCC2)c2ccccc2)oc2ccccc12` [KSCM-5, 3-Methyl-N-phenyl-N-(3-(piperidin-1-yl)propyl)benzofuran-2-carboxamide], for which the inhibition at 10 µM at Alpha2A was determined as 77.7%; on M4, 43.1%; at 5-HT2B (primary binding assay, 10 μM (final) assay concentration) it was 69.2%; on Alpha2C, 61.9%. The “expression of imported 30-kDa StAR (in words)” value in the assay on StAR is “unchanged”. In addition, the “expression of unimported 37-kDa StAR (in words)” value with StAR is “not and unchanged”. Besides, the Ki at σ2 receptor stood at 16 nM.

With `COc1cc2oc(C(=O)N(CCCN3CCCCC3)c3ccccc3)c(C)c2cc1OC` [KSCM-1, 5,6-Dimethoxy-3-methyl-N-phenyl-N-(3-(piperidin-1-yl)propyl)benzofuran-2-carboxamide], the inhibition at 10 µM on D3 worked out at 38.8%; on M4 it was 54.4%; on 5-HT2B, 43.8%; on Alpha2C, 78.9%. The Ki amounted to 2560 nM on 5-HT2A and 528 nM at σ2 receptor. In the assay on StAR, the “expression of imported 30-kDa StAR (in words)” value is “unaffected”. Moreover, the “expression of unimported 37-kDa StAR (in words)” value in the assay on StAR is reported as “increased (and/or stabilized); also recorded: stabilizes the expression of unimported StAR”.

For the origin of these results see patent publication US9532983B2, “Benzofuran compounds, compositions, kits and/or methods thereof” (Savannah State University, priority 2013, dated 2017).
